# Assay results taken from patent US20150231236A1, “METHODS FOR TREATING PATIENTS WITH HYPERCHOLESTEROLEMIA THAT IS NOT ADEQUATELY CONTROLLED BY MODERATE-DOSE STATIN THERAPY” (Regeneron Pharmaceuticals, Inc., priority 2014, published 2015).
# Test system: patients with hypercholesterolemia at high CV risk not adequately controlled with rosuvastatin (10 mg or 20 mg)
# Experiment: Example 3: randomized, double-blind trial, lipid efficacy of mAb316P add-on to rosuvastatin vs EZE add-on or rosuvastatin dose doubling
# Type: in vivo, human
# Conditions: for Proportion of Patients Reaching LDL-C goal (%) / LDL-C W24 % change from baseline, LS mean (SE): week 24; for Proportion of Patients Reaching LDL-C goal (%): LDL-C <70 mg/dL very high risk or <100 mg/dL high risk; for LDL-C W24 % change from baseline, LS mean (SE): ITT population, treatment arm as labelled
# Description: The present study was a randomized, double-blind, active-comparator, parallel-group study in patients at high CV risk with non-FH or heFH who are not adequately controlled with rosuvastatin (10 mg or 20 mg) with or without other lipid-modifying therapy (LMT) (excluding EZE). The study design is illustrated in FIG. 2. Patients who entered the study were taking either rosuvastatin 10 mg or rosuvastatin 20 mg. The former patients were randomized to 1 of 3 treatment arms (arms 1 to 3); the latter patients were randomized to 1 of 3 treatment arms (arms 4 to 6). The treatment arms are as follows:
# (B) a double-blind treatment period of 24 weeks. […] The patient/caregiver administered subsequent injections outside of the clinic according to the dosing schedule. […] The last dose of daily oral study drugs was administered at week 24.
# The first injection of study drug was administered at the clinical site, as soon as possible after the patient was randomized into the study. The patient was monitored at the clinical site for at least 30 minutes following the first injection. The patient/caregiver administered subsequent injections outside of the clinic, according to the dosing schedule.
# The primary efficacy endpoint was the percent change in calculated LDL-C from baseline to week 24, which is defined as: 100× (calculated LDL-C value at week 24−calculated LDL-C value at baseline)/calculated LDL-C value at baseline. The baseline calculated LDL-C value was the last LDL-C level obtained before the first double-blind study drug injection. The calculated LDL-C at week 24 was the LDL-C level obtained within the week 24 analysis window and during the main efficacy period. The main efficacy period is defined as the time from the first double-blind study drug injection up to 21 days after the last double-blind study drug injection or up to the upper limit of the week 24 analysis window, whichever comes first.
# Total-C, HDL-C, TG, ApoB, ApoA-1, and Lp(a) were directly measured by a central laboratory. LDL-C was calculated using the Friedewald formula. […] Non-HDL-C was calculated by subtracting HDL-C from the total-C. Ratio ApoB/ApoA-1 was calculated.
# For clarification, the ITT analysis is defined for patients in the ITT population and includes all endpoint assessments in an analysis window, regardless of study treatment dosing status (i.e. includes post-treatment assessments). The on-treatment analysis is defined for patients in the mITT population and includes all endpoint assessments from the first double-blind study drug (capsule or injection, whichever comes first) up to 21 days after the last double-blind study drug injection or 3 days after the last capsule intake, whichever comes first (i.e. includes assessments in the efficacy treatment period).
# [1] = Week 4, baseline rosuvastatin 10 mg
# [2] = Week 4, baseline rosuvastatin 20 mg
# [3] = Week 8, baseline rosuvastatin 10 mg
# [4] = Week 8, baseline rosuvastatin 20 mg
# [5] = Week 12, baseline rosuvastatin 10 mg
# [6] = Week 12, baseline rosuvastatin 20 mg
# [7] = Week 16, baseline rosuvastatin 10 mg
# [8] = Week 16, baseline rosuvastatin 20 mg
# [9] = Week 24, baseline rosuvastatin 10 mg
# [10] = Week 24, baseline rosuvastatin 20 mg
structure (smiles),measurement,setting,value
"CC(C)c1nc(N(C)S(C)(=O)=O)nc(-c2ccc(F)cc2)c1/C=C/[C@@H](O)C[C@@H](O)CC(=O)O [rosuvastatin, reference compound]",Proportion of Patients Reaching LDL-C goal (%),Baseline Rosuvastatin 10 mg,45.0%
same,Proportion of Patients Reaching LDL-C goal (%),Baseline Rosuvastatin 20 mg,40.1%
same,Calculated LDL-C LS mean (SE) Value,"Baseline, baseline rosuvastatin 10 mg",105.9 (5.2) mg/dL
same,Calculated LDL-C LS mean (SE) Value,"Baseline, baseline rosuvastatin 20 mg",113.7 (6.0) mg/dL
same,"LDL-C W24 % change from baseline, LS mean (SE)",listed as RSV 20,−16.3%
same,"LDL-C W24 % change from baseline, LS mean (SE)",listed as RSV 40,−15.9%
same,Calculated LDL-C LS mean (SE) Value,[1],89.1 (3.6) mg/dL
same,"Calculated LDL-C LS mean (SE), % Change from Baseline",[1],−13.1 (3.2) %
same,"Calculated LDL-C LS mean (SE), Change from Baseline",[1],−16.2 (3.6)
same,Calculated LDL-C LS mean (SE) Value,[2],92.0 (3.4) mg/dL
same,"Calculated LDL-C LS mean (SE), % Change from Baseline",[2],−20.0 (5.3) %
same,"Calculated LDL-C LS mean (SE), Change from Baseline",[2],−25.1 (3.4)
same,Calculated LDL-C LS mean (SE) Value,[3],85.4 (4.3) mg/dL
same,"Calculated LDL-C LS mean (SE), % Change from Baseline",[3],−17.0 (3.8) %
same,"Calculated LDL-C LS mean (SE), Change from Baseline",[3],−19.9 (4.3)
same,Calculated LDL-C LS mean (SE) Value,[4],91.9 (4.3) mg/dL
same,"Calculated LDL-C LS mean (SE), % Change from Baseline",[4],−21.2 (5.7) %
same,"Calculated LDL-C LS mean (SE), Change from Baseline",[4],−25.2 (4.3)
same,Calculated LDL-C LS mean (SE) Value,[5],85.7 (4.1) mg/dL
same,"Calculated LDL-C LS mean (SE), % Change from Baseline",[5],−17.1 (4.1) %
same,"Calculated LDL-C LS mean (SE), Change from Baseline",[5],−19.6 (4.1)
same,Calculated LDL-C LS mean (SE) Value,[6],90.4 (4.3) mg/dL
same,"Calculated LDL-C LS mean (SE), % Change from Baseline",[6],−22.1 (5.3) %
same,"Calculated LDL-C LS mean (SE), Change from Baseline",[6],−26.6 (4.3)
same,Calculated LDL-C LS mean (SE) Value,[7],83.6 (4.7) mg/dL
same,"Calculated LDL-C LS mean (SE), % Change from Baseline",[7],−19.3 (4.8) %
same,"Calculated LDL-C LS mean (SE), Change from Baseline",[7],−21.6 (4.7)
same,Calculated LDL-C LS mean (SE) Value,[8],93.8 (4.8) mg/dL
same,"Calculated LDL-C LS mean (SE), % Change from Baseline",[8],−18.5 (6.3) %
same,"Calculated LDL-C LS mean (SE), Change from Baseline",[8],−23.3 (4.8)
same,Calculated LDL-C LS mean (SE) Value,[9],85.4 (4.3) mg/dL
same,"Calculated LDL-C LS mean (SE), % Change from Baseline",[9],−16.3 (4.1) %
same,"Calculated LDL-C LS mean (SE), Change from Baseline",[9],−19.9 (4.3)
same,Calculated LDL-C LS mean (SE) Value,[10],95.5 (5.7) mg/dL
same,"Calculated LDL-C LS mean (SE), % Change from Baseline",[10],−15.9 (7.1) %
same,"Calculated LDL-C LS mean (SE), Change from Baseline",[10],−21.5 (5.7)
same,proportion of patients who reached LDL-C level of <70 mg/dL (1.81 mmol/L) at Week 24,baseline rosuvastatin 10 mg regimen,31.3%
same,proportion of patients who reached LDL-C level of <70 mg/dL (1.81 mmol/L) at Week 24,baseline rosuvastatin 20 mg regimen,29.9%
